Measured values: patent US12622910B2, “Inhibitors of Bruton's tyrosine kinase and methods of their use” (Janssen Pharmaceutica NV, priority 2021, dated 2026)
Like-named read-outs stand apart in the source and are kept apart here.

Experiment: Phase 1 first-in-human study, plasma pharmacokinetics
Format: in vivo
Details: for Tmax / Cmax / AUC(0-t) / half-life / AUC(0-inf): plasma
Procedure: Safety, tolerability, PK, and BTKO were assessed for six doses of compound of Formula (III) oral solution (4, 12, 36, 100, 200, 400 mg) in participants under fasted conditions. The SAD part comprised 10 cohorts of 8 participants each (FIG. 1). In each cohort receiving compound of Formula (III) oral solution (Cohorts 1-9), 6 participants were randomized to receive compound of Formula (III) and 2 to receive placebo. All participants in Cohort 10 received compound of Formula (III) as an oral capsule. All 10 cohorts included 2 sentinel participants who were dosed ˜24 hours prior to the rest of the cohort. In cohorts receiving compound of Formula (III) oral solution, 1 sentinel participant received compound of Formula (III) and the other received placebo.
Six male escalating dose cohorts received a single oral dose of 4, 12, 36, 100, 200, 400 mg compound of Formula (III) or placebo solution under fasted conditions. Gender effects were assessed in 2 female cohorts whose participants received either a 36 or 100 mg dose of compound of Formula (III) or placebo as an oral solution under fasted conditions. Food effects were evaluated in a male cohort receiving compound of Formula (III) 100 mg or placebo as an oral solution after a high-fat breakfast.
Safety, tolerability, and PK of a solid dose formulation of compound of Formula (III) were assessed in an additional male cohort (Cohort 10) that received 3×35 mg (105 mg) of compound of Formula (III) in the fasted state. Since all the participants received the same dose of compound of Formula (III), this cohort was not blinded.
Safety, tolerability, PK, and BTKO following multiple compound of Formula (III) doses were evaluated in 3 dose escalation cohorts with a total of 18 participants (males: 9, females: 9) receiving active study drug. In each cohort, 3 males and 3 females were randomized to receive 36 mg once-daily (QD), 100 mg QD, or 200 mg QD compound of Formula (III) oral solution and 3 participants (males: 2; female: 1) to receive placebo. Two male participants in each cohort served as sentinel participants: one received compound of Formula (III) and other received placebo ˜48 hours prior to other participants in the cohort. All safety and tolerability data (through the follow-up visit), PK data (through at least 24 hours after last dose administration), and all available PD data were reviewed from each cohort before a decision was made to dose escalate.
Sample collection—For the PK assessment of compound of Formula (III), venous blood samples (2 to 4 mL each) were collected predose and at 15 min, 0.5, 1, 1.5, 2, 2.5, 3, 4, 6, 8, 12, 24, 36, 48, and 72 hours post-dose in Part 1. In Part 2, samples were collected predose and at 15 min, 0.5, 1, 1.5, 2, 2.5, 3, 4, 6, 8, 12 hours post-dose on day 1, predose and 1 hour post-dose on days 2-9, and predose and at 15 min, 0.5, 1, 1.5, 2, 2.5, 3, 4, 6, 8, 12, 24, 48, and 72 hours after the last dose on day 10. Plasma samples were analyzed to determine concentrations of compound of Formula (III) using a scientific validated, specific, and sensitive liquid chromatography-mass spectrometry (LC-MS/MS) method.
The PK analysis for the compound of Formula (III) samples was performed using a non-compartmental method with validated Phoenix® WinNonlin® (version 8.0, Certara L.P.).

[1] = 36 mg QD oral solution, fed, Day 10
[2] = 100 mg QD oral solution, fed, Day 10
[3] = 200 mg QD oral solution, fed, Day 10
[4] = female, human, po, 36 mg, single 36 mg oral solution, female fasted
[5] = female, human, po, 100 mg, single 100 mg oral solution, female fasted
[6] = male, human, po, 4 mg, single 4 mg oral solution, male fasted
[7] = male, human, po, 12 mg, single 12 mg oral solution, male fasted

Structure (SMILES): C=CC(=O)N[C@H]1CCC[C@H]1NC(=O)c1sc2nccc3c2c1NC(=O)N3c1cnc(CC(C)C)cc1C (atropisomer, axis not shown) [compound of Formula (III), N-((1R,2S)-2-Acrylamidocyclopentyl)-5-(S)-(6-isobutyl-4-methylpyridin-3-yl)-4-oxo-4,5-dihydro-3H-1-thia-3,5,8-triazaacenaphthylene-2-carboxamide]
- ARCmax [1]: 1.04
- Cmin [1]: 0.552 ng/mL
- ARCmax [2]: 0.968
- Cmin [2]: 1.51 ng/mL
- mean Cmax/Dose lower, capsule vs oral solution (105 mg capsule vs 100 mg solution): approximately 64%
- Ae% dose (200 mg QD oral solution, fed, Day 1): 0.234
- ARCmax [3]: 1.21
- Ae% dose [3]: 0.234
- CLR [3]: 0.186 L/h
- Cmin [3]: 4.96 ng/mL
- Tmax (both sexes, human, oral, Part 2, day 1, 36-200 mg QD, read-out: median tmax across doses): 1.25 to 1.77 h
- Cmax (both sexes, human, po, 36 mg, 36 mg QD oral solution, fed, Day 1): 193 ng/mL
- AUC(0-t) (both sexes, human, po, 36 mg, 36 mg QD oral solution, fed, Day 1, read-out: AUC0-24 h): 925 ng·h/mL
- Tmax (both sexes, human, po, 36 mg, 36 mg QD oral solution, fed, Day 1, read-out: tmax, median (min-max)): 1.5 h
- Cmax (both sexes, human, po, 36 mg, 36 mg QD oral solution, fed, Day 10): 199 ng/mL
- AUC(0-t) (both sexes, human, po, 36 mg, 36 mg QD oral solution, fed, Day 10, read-out: AUC0-24 h): 889 ng·h/mL
- half-life (both sexes, human, po, 36 mg, 36 mg QD oral solution, fed, Day 10, read-out: t1/2, dom (converted)): 1.5 h
- half-life (both sexes, human, po, 36 mg, 36 mg QD oral solution, fed, Day 10, read-out: t1/2, λz (converted)): 4.9 h
- Tmax (both sexes, human, po, 36 mg, 36 mg QD oral solution, fed, Day 10, read-out: tmax, median (min-max)): 2 h
- Cmax (both sexes, human, po, 100 mg, 100 mg QD oral solution, fed, Day 1): 464 ng/mL
- AUC(0-t) (both sexes, human, po, 100 mg, 100 mg QD oral solution, fed, Day 1, read-out: AUC0-24 h): 1820 ng·h/mL
- Tmax (both sexes, human, po, 100 mg, 100 mg QD oral solution, fed, Day 1, read-out: tmax, median (min-max)): 1.25 h
- Cmax (both sexes, human, po, 100 mg, 100 mg QD oral solution, fed, Day 10): 424 ng/mL
- AUC(0-t) (both sexes, human, po, 100 mg, 100 mg QD oral solution, fed, Day 10, read-out: AUC0-24 h): 1690 ng·h/mL
- half-life (both sexes, human, po, 100 mg, 100 mg QD oral solution, fed, Day 10, read-out: t1/2, dom (converted)): 1.8 h
- half-life (both sexes, human, po, 100 mg, 100 mg QD oral solution, fed, Day 10, read-out: t1/2, λz (converted)): 9.6 h
- Tmax (both sexes, human, po, 100 mg, 100 mg QD oral solution, fed, Day 10, read-out: tmax, median (min-max)): 1.53 h
- Cmax (both sexes, human, po, 200 mg, 200 mg QD oral solution, fed, Day 1): 719 ng/mL
- AUC(0-t) (both sexes, human, po, 200 mg, 200 mg QD oral solution, fed, Day 1, read-out: AUC0-24 h): 2560 ng·h/mL
- Tmax (both sexes, human, po, 200 mg, 200 mg QD oral solution, fed, Day 1, read-out: tmax, median (min-max)): 1.77 h
- Cmax (both sexes, human, po, 200 mg, 200 mg QD oral solution, fed, Day 10): 839 ng/mL
- AUC(0-t) (both sexes, human, po, 200 mg, 200 mg QD oral solution, fed, Day 10, read-out: AUC0-24 h): 3160 ng·h/mL
- half-life (both sexes, human, po, 200 mg, 200 mg QD oral solution, fed, Day 10, read-out: t1/2, dom (converted)): 1.9 h
- half-life (both sexes, human, po, 200 mg, 200 mg QD oral solution, fed, Day 10, read-out: t1/2, λz (converted)): 23.1 h
- Tmax (both sexes, human, po, 200 mg, 200 mg QD oral solution, fed, Day 10, read-out: tmax, median (min-max)): 2 h
- CL renal (both sexes, human, urine and plasma, 200 mg QD oral solution, fed, Day 1): 3.1 mL/min
- AUC(0-inf) [4]: 22.7 ng·h/mL
- Cmax [4]: 233 ng/mL
- AUC(0-t) (female, human, po, 36 mg, single 36 mg oral solution, female fasted, read-out: AUC0-24 h): 819 ng·h/mL
- AUC(0-t) (female, human, po, 36 mg, single 36 mg oral solution, female fasted, read-out: AUClast): 816 ng·h/mL
- half-life (female, human, po, 36 mg, single 36 mg oral solution, female fasted, read-out: t1/2, dom (converted)): 1.6 h
- half-life (female, human, po, 36 mg, single 36 mg oral solution, female fasted, read-out: t1/2, λz (converted)): 1.9 h
- Tmax (female, human, po, 36 mg, single 36 mg oral solution, female fasted, read-out: tmax, median (min-max)): 1 h
- AUC(0-inf) [5]: 1340 ng·h/mL
- Cmax [5]: 650 ng/mL
- AUC(0-t) (female, human, po, 100 mg, single 100 mg oral solution, female fasted, read-out: AUC0-24 h): 1420 ng·h/mL
- AUC(0-t) (female, human, po, 100 mg, single 100 mg oral solution, female fasted, read-out: AUClast): 1460 ng·h/mL
- half-life (female, human, po, 100 mg, single 100 mg oral solution, female fasted, read-out: t1/2, dom (converted)): 1.6 h
- half-life (female, human, po, 100 mg, single 100 mg oral solution, female fasted, read-out: t1/2, λz (converted)): 11.6 h
- Tmax (female, human, po, 100 mg, single 100 mg oral solution, female fasted, read-out: tmax, median (min-max)): 0.5 h
- AUC(0-inf) [6]: 155 ng·h/mL
- Cmax [6]: 43.5 ng/mL
- AUC(0-t) (male, human, po, 4 mg, single 4 mg oral solution, male fasted, read-out: AUC0-24 h): 157 ng·h/mL
- AUC(0-t) (male, human, po, 4 mg, single 4 mg oral solution, male fasted, read-out: AUClast): 154 ng·h/mL
- half-life (male, human, po, 4 mg, single 4 mg oral solution, male fasted, read-out: t1/2, dom (converted)): 1.6 h
- half-life (male, human, po, 4 mg, single 4 mg oral solution, male fasted, read-out: t1/2, λz (converted)): 1.6 h
- Tmax (male, human, po, 4 mg, single 4 mg oral solution, male fasted, read-out: tmax, median (min-max)): 1 h
- AUC(0-inf) [7]: 317 ng·h/mL
- Cmax [7]: 88 ng/mL
- AUC(0-t) (male, human, po, 12 mg, single 12 mg oral solution, male fasted, read-out: AUC0-24 h): 319 ng·h/mL
- AUC(0-t) (male, human, po, 12 mg, single 12 mg oral solution, male fasted, read-out: AUClast): 316 ng·h/mL
- half-life (male, human, po, 12 mg, single 12 mg oral solution, male fasted, read-out: t1/2, dom (converted)): 1.5 h
